Measured values as given in article PMC12040169 (PLOS Biology, 2025).

test: in vitro; conditions: human, hela cells, % viability

Going from `CC(=O)NCCSc1nc2cc(Cl)c(Cl)cc2nc1N1CCCC1` [CBK103701] to `c1ccc(OCCSc2nc3ccccc3nc2N2CCCC2)cc1` [CBK103694], the viability at 28.5 h, 10 µM rises from 96.3% to 102%.

First: CCOC(=O)c1cccnc1-c1ccc(Cl)c(Cl)c1 [CBK149241]
Second: Cc1cccnc1NC(=O)COc1ccc(Cl)cc1Cl [CBK262154]
The viability at 28.5 h, 10 µM of the first is higher: 92.1% for the first, 86.5% for the second.

Going from `Cn1ccc(C2CCCCCN2S(=O)(=O)c2ccc(F)cc2)n1` (stereo not drawn) [CBK284671] to `O=C(O)CSc1nnc(-c2ccc(S(=O)(=O)N3CCCCCC3)cc2)o1` [CBK300508], the viability at 28.5 h, 10 µM falls from 98.8% to 81.9%.

Compared with `COC(=O)c1ccccc1NC(=O)CC1Sc2ccccc2NC1=O` (stereo not drawn) [CBK269400], `COC(=O)c1cc(NC(=O)CC2Sc3ccccc3NC2=O)cc(C(=O)OC)c1` (stereo not drawn) [CBK266260] is higher in viability at 28.5 h, 10 µM: 90.2% for the first, 99.6% for the second.

First: OCCOc1nc2ccccc2s1 [CBK001812]
Second: OC1CC(c2cc(NCCc3nc4ccccc4o3)ncn2)C1 (stereo not drawn) [CBK306573]
The viability at 28.5 h, 10 µM of the first is lower: 97.2% for the first, 99.9% for the second.

Compared with `CC(C)n1c(=O)oc2cc(S(=O)(=O)NC(c3ccccc3)c3ccccc3)ccc21` [CBK286350], `CS(=O)(=O)N(Cc1ccccc1)c1ccc(C(=O)Nc2ccccc2Cl)cc1` [CBK262745] is lower in viability at 28.5 h, 10 µM: 91.7% for the first, 86.9% for the second.

Going from `O=S(=O)(Nc1ccccn1)N1CCOCC1` [CBK269391] to `CN(CC(=O)N1CCOCC1)S(=O)(=O)c1ccc2ccccc2c1` [CBK266946], the viability at 28.5 h, 10 µM rises from 86.9% to 98.5%.

Going from `O=C(Cc1ccc2c(c1)CCCC2)Nc1cccc(-c2nnn[nH]2)c1` [CBK297129] to `CC(=O)Nc1cccc(-c2cnc(N)c(NC3CCOCC3)n2)c1` [CBK063845], the viability at 28.5 h, 10 µM falls from 114% to 107%.

Going from `O=C(COc1ccc(S(=O)(=O)N2CCCCC2)cc1)N1CCN(Cc2ccccc2)CC1` [CBK269144] to `O=C(COc1ccc(NS(=O)(=O)c2ccc3c(c2)Cc2ccccc2-3)cc1)N1CCOCC1` [CBK266030], the viability at 28.5 h, 10 µM rises from 87.1% to 101%.

Going from `O=C(NC[C@H]1O[C@@H](CC(=O)N2CCCC2)[C@H](O)[C@@H]1O)c1ccccc1` [CBK288907] to `CC(C)(C)c1ccc(C(=O)N2CCC(C(=O)O)CC2)cc1` [CBK286949], the viability at 28.5 h, 10 µM rises from 88.5% to 108%.

Going from `COc1ccc(-c2nc3ccccc3o2)cc1NC(=O)C(C)Oc1ccc(Cl)cc1Cl` (stereo not drawn) [CBK266787] to `COc1ccc(OCC(=O)Nc2cc3oc4ccccc4c3cc2OC)cc1` [CBK262608], the viability at 28.5 h, 10 µM rises from 76.4% to 88.5%.

Going from `CC(CC(=O)C1C(C)C=CCC1(C)C)NNC(=O)c1ccccc1O` (stereo not drawn) [CBK262980] to `CC(=O)Nc1nc(-c2ccccc2C)ccc1C(=O)N(C)C` [CBK106328], the viability at 28.5 h, 10 µM rises from 91.6% to 94.6%.

First: Cc1ccc2oc(C(=O)N3CCN(CC(=O)N(C)C)CC3)c(C)c2c1 [CBK281423]
Second: Cc1cc(N(C)C)cc(C2CCCN(C(=O)c3cccc(F)c3)C2)n1 (stereo not drawn) [CBK282003]
The viability at 28.5 h, 10 µM of the first is lower: 94.2% for the first, 95.1% for the second.

Compared with `CN1[C@@H](CCC(=O)NCc2ccc(F)cc2)CNC(=O)[C@@H]2[C@H]1CCN2C1CCOCC1` [CBK289023], `O=C(NCc1ccc(F)cc1)N(Cc1cccc(Cl)c1)CC1CCNCC1` [CBK119479] is higher in viability at 28.5 h, 10 µM: 106% for the first, 117% for the second.

First: COc1ccccc1OCC(=O)N1CCC(Cn2cncn2)(C2CCCCC2)CC1 [CBK136797]
Second: c1ccc2c(c1)/C(=N/OCCN1CCCC1)CC21CCCCC1 [CBK013322]
The viability at 28.5 h, 10 µM of the first is lower: 91.9% for the first, 110% for the second.

First: CN1CCN(CC(=O)N2N=C(c3c(-c4ccccc4)c4cc(Cl)ccc4[nH]c3=O)CC2c2ccccc2)CC1 (stereo not drawn) [CBK267545]
Second: O=C(Cc1cccs1)N1CCC(c2nnc(-c3ccccc3)c(-c3ccccc3)n2)CC1 [CBK286283]
The viability at 28.5 h, 10 µM of the first is lower: 88.9% for the first, 98.8% for the second.

First: COc1cc(NC(=O)c2cnc(-c3ccc(Cl)cc3)c(-c3ccco3)c2)cc(C(F)(F)F)c1 [CBK037570]
Second: COc1cccc(C(=O)Nc2nn(Cc3ccc(C(F)(F)F)cc3)c3ccccc23)c1 [CBK048273]
The viability at 28.5 h, 10 µM of the first is higher: 91.4% for the first, 83.9% for the second.

Going from `O=C(c1nc[nH]n1)N1CCN(c2nccc(CCC(F)(F)F)n2)CC1` [CBK307306] to `CCS(=O)(=O)Nc1ccc(C(=O)N2CCN(c3ccccc3)CC2)cc1` [CBK304345], the viability at 28.5 h, 10 µM rises from 106% to 112%.

Compared with `CCN1CCC2(CC1)Nc1cc(Cl)c(S(N)(=O)=O)cc1S(=O)(=O)N2` [CBK010418C], `Cc1ccnc2c1C(=O)C1(CC2)CCN(S(=O)(=O)c2c(C)noc2C)CC1` [CBK059557T] is lower in viability at 28.5 h, 10 µM: 97.7% for the first, 80.4% for the second.

Going from `Cc1ccc(OCC(=O)NNC(=O)c2ccco2)cc1` [CBK261800] to `CCN1CCCC1CNC(=O)c1ccc(-c2ccco2)nc1N1CCN(C(=O)c2ccco2)CC1` (stereo not drawn) [CBK076206], the viability at 28.5 h, 10 µM falls from 96.1% to 90.4%.

Going from `O=C(OCCN1C[C@H]2CCCCC2C1c1ccccc1)c1ccc(Br)cc1` (stereo partly drawn) [CBK016175C] to `Cc1ccn(CC(=O)N2CC[C@H]3NC(=O)COc4ccccc4CCCC[C@@H]3C2)c(=O)c1` [CBK292045], the viability at 28.5 h, 10 µM falls from 104% to 99.2%.

Going from `Cc1cc(C(=O)NC2(C#N)CCSCC2)n(C)n1` [CBK306386] to `CC1CC1C(=O)NCCN1CCC(O)(c2cccc(F)c2)CC1` (stereo not drawn) [CBK283286], the viability at 28.5 h, 10 µM falls from 90.9% to 84.4%.

Going from `CC(OC(=O)Cc1ccccc1[N+](=O)[O-])c1nnnn1-c1ccccc1` (stereo not drawn) [CBK297920] to `CC[C@@H](Cn1ncc2ccccc2c1=O)NC(=O)CC1c2ccccc2Oc2ccccc21` [CBK286174], the viability at 28.5 h, 10 µM falls from 97.6% to 89.5%.

Compared with `c1ccc(CCN2CCC(Oc3cncc(OCC4COc5ccccc5O4)n3)C2)cc1` (stereo not drawn) [CBK084382], `c1ccc2c(CCN3CCC(Oc4nccnc4OCCN4CCOCC4)CC3)c[nH]c2c1` [CBK082939T] is lower in viability at 28.5 h, 10 µM: 93% for the first, 88.6% for the second.

Going from `O=C(Nc1ccc(F)cc1)Nc1cccnc1Cl` [CBK058509] to `O=C(Nc1ccc(F)cc1)c1sccc1NS(=O)(=O)c1cc(F)c(Br)cc1F` [CBK004586], the viability at 28.5 h, 10 µM rises from 90.4% to 94.4%.

First: O=C(O)c1cc(N/N=C/c2ccc(-c3ccc(Cl)c(C(=O)O)c3)o2)ccc1Cl [CBK262483]
Second: Cc1ccc(C(=O)NC(=S)Nc2ccc(-c3ccc(CO)o3)cc2)cc1[N+](=O)[O-] [CBK269127]
The viability at 28.5 h, 10 µM of the first is lower: 88.8% for the first, 110% for the second.

Compared with `CCc1nnc(CN(C)Cc2c(C)nn(C)c2Cl)o1` [CBK304132], `CCc1nc(CCn2ccc3nc(OC)c(C#N)cc3c2=O)no1` [CBK307668] is higher in viability at 28.5 h, 10 µM: 90.5% for the first, 94.1% for the second.

Going from `CC1CN(Cc2cccc(CNc3ncccc3C#N)c2)CCO1` (stereo not drawn) [CBK303994] to `O=C(c1ccco1)N1CCCC(n2cnc3cc(F)ccc32)C1` (stereo not drawn) [CBK284475], the viability at 28.5 h, 10 µM falls from 95.7% to 94.8%.

Compared with `CNC(=O)C1(Cc2ccccc2-c2cccs2)CCN(C(=O)c2cccc(OC)c2)CC1` [CBK285907], `COc1ccc(C2(C(=O)NCc3c(F)cccc3F)CC2)cc1` [CBK149826] is higher in viability at 28.5 h, 10 µM: 85.7% for the first, 108% for the second.

Going from `COc1ccc(S(=O)(=O)Nc2ccc(C(=O)O)c(O)c2)cc1[N+](=O)[O-]` [CBK299771] to `COc1ncc(-c2nccnc2NCc2cccc([N+](=O)[O-])c2)c(OC)n1` [CBK036680], the viability at 28.5 h, 10 µM rises from 95.7% to 97.7%.

First: Cc1ccc(CCNC(=O)c2snnc2C)cc1C [CBK282051]
Second: Cc1cc(Cl)ccc1CNC(=O)C1=CC(=O)CC(C)(C)O1 [CBK153282]
The viability at 28.5 h, 10 µM of the first is lower: 89.6% for the first, 97.5% for the second.

First: Cc1ccc(-c2nnc(CNC(=O)c3ccc(F)c(F)c3)o2)s1 [CBK284647]
Second: CSCCCNC(=O)c1cc(-c2ccc(C(=O)N3CCOCC3)cc2)cnc1N [CBK158568]
The viability at 28.5 h, 10 µM of the first is lower: 90.5% for the first, 95.5% for the second.

Going from `COc1ccc(C)cc1C1(CNC(=O)C2CC(O)CN2)CCOCC1` (stereo not drawn) [CBK304162] to `COc1cccc2sc(NC(=O)CN3CCOCC3)nc12` [CBK149281], the viability at 28.5 h, 10 µM rises from 92% to 98.8%.

First: CC1CCc2c(sc(NC(=O)c3ccncc3)c2C(N)=O)C1 (stereo not drawn) [CBK288530]
Second: CC(O)CNC(=O)c1cn2cc(-c3cccs3)n(CC3CC3)c(=O)c2n1 (stereo not drawn) [CBK307117]
The viability at 28.5 h, 10 µM of the first is higher: 87.8% for the first, 81.3% for the second.

Going from `COc1cncc(C(NC(=O)Cc2cn3ccsc3n2)[C@H]2C[C@H](O)C2)c1` (stereo partly drawn) [CBK306642] to `COc1ccc(OCCN2CCc3ccccc3C2)cc1` [CBK126403], the viability at 28.5 h, 10 µM falls from 97.2% to 94.8%.

Going from `CCn1cc(C(=O)NN)c(=O)c2cc(F)c(N3CCCCCC3)cc21` [CBK307145] to `CCOC(=O)c1c(NC(=O)CN2CCCCC2)sc2c1CCCC2=O` [CBK263224], the viability at 28.5 h, 10 µM rises from 100% to 112%.

Compared with `O=C1NC/C=C/CC2(CCN(C(=O)c3cccnn3)CC2)C(=O)NCCOc2ccccc21` [CBK292095], `O=C1COc2ccccc2C/C=C/CC2(CCN(CC3CCOCC3)CC2)CN1` [CBK292128] is lower in viability at 28.5 h, 10 µM: 108% for the first, 104% for the second.

Compared with `OCCN(Cc1cccnc1)Cc1cccn1-c1ccc(F)cc1` [CBK283023], `CC(C)(C)c1cc(C(=O)Cn2c(=N)n(Cc3ccccc3)c3ccccc32)cc(C(C)(C)C)c1O` [CBK262480B] is higher in viability at 28.5 h, 10 µM: 95.9% for the first, 97.5% for the second.

First: O=C(NC1CCN(Cn2nnc3ccccc3c2=O)CC1)C1CC1 [CBK305584]
Second: CC(C)c1ccc(C(C)NC(=O)Cn2cccc(C(=O)NC3CCCCC3)c2=O)cc1 (stereo not drawn) [CBK286044]
The viability at 28.5 h, 10 µM of the first is lower: 82.3% for the first, 119% for the second.

Going from `COc1ccc(-c2cnc(N)c(NC3CCOCC3)n2)c(OC)c1OC` [CBK063844] to `COc1ccc(Nc2cc(-c3ccc(SC)cc3)ncn2)c(C)c1` [CBK091042], the viability at 28.5 h, 10 µM falls from 113% to 89.2%.

Compared with `CS(=O)(=O)N1CC2(CCN(Cc3cccc(C(F)(F)F)c3)CC2)c2ccccc21` [CBK126670], `c1ccc(OCc2nc3c4c(-c5ccccc5)c(-c5ccccc5)oc4ncn3n2)cc1` [CBK262939] is lower in viability at 28.5 h, 10 µM: 96.8% for the first, 94.6% for the second.

First: O=C(O)CCCCN1C(=O)c2ccccc2S1(=O)=O [CBK287189]
Second: N=C(N)NCCc1c[nH]c2ccccc12 [CBK024011G]
The viability at 28.5 h, 10 µM of the first is lower: 84.8% for the first, 107% for the second.

First: C=CCn1c(SCCC(=O)O)nc2c1c(=O)n(C)c(=O)n2C [CBK269573]
Second: CCC(C)CS(=O)(=O)c1nc(C)c(C)n1CC1CCCO1 (stereo not drawn) [CBK305107]
The viability at 28.5 h, 10 µM of the first is lower: 79.3% for the first, 114% for the second.

same assay, conditions: human, hela cells, % viability, bulk resorufin, single well

In the case of `COC(=O)c1ccc(N2C(=O)NC(=O)/C(=C\c3ccc(OCC(=O)O)cc3)C2=O)cc1` [CBK265407], the viability at 28.5 h, 10 µM was 85.2%.
